ChEMBL document CHEMBL1126610, “Amidinium cation as a mimic of allylic carbocation: synthesis and squalene synthetase inhibitory activity of an amidinium analog of a carbocation intermediate” (J Med Chem, 1993)

Key:
Squalene synthase [1] = molecular target: T1, Squalene synthase (Rattus norvegicus, UniProt Q02769); assay: Inhibitory activity against squalene synthetase in the presence of inorganic pyrophosphate in rat liver microsomal assay; format: microsomes
T1 sequence (Q02769 whole entry): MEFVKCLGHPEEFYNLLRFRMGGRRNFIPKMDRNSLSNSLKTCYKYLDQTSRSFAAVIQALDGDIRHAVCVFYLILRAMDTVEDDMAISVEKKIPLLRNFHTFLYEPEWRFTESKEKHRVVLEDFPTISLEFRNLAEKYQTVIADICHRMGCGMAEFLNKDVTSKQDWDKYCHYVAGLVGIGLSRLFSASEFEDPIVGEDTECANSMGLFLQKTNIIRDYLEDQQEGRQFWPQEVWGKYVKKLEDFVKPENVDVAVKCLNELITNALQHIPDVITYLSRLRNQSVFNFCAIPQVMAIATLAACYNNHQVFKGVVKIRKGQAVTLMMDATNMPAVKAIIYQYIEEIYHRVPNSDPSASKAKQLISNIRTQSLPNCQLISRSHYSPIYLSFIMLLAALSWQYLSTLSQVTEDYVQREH

Squalene synthase [2] = molecular target: T1, Squalene synthase; assay: Inhibitory activity against squalene synthetase in rat liver microsomal assay; format: microsomes

## CC(C)=CCC/C(C)=C/CC/C(C)=C/C/N=C/N(C)CC/C=C(\C)CCC=C(C)C
Squalene synthase [1]
  IC50: 0.1 µM
Squalene synthase [2]
  IC50: 6.9 µM
